Laboratory results taken from US20180177734A1, “PHARMACEUTICAL FORMULATIONS COMPRISING TENOFOVIR AND EMTRICITABINE” (priority 2015, published 2018).
Where two headings read alike, the source gives them in different places.

Conditions: 40° C./75% RH open, 60° C. closed

CC(C)OC(=O)[C@H](C)N[P@](=O)(CO[C@H](C)Cn1cnc2c(N)ncnc21)Oc1ccccc1 [tenofovir alafenamide hemifumarate]
rate of degradation of tenofovir alafenamide hemifumarate (in the presence of both emtricitabine and rilpivirine HCl): further increased
rate of degradation of tenofovir alafenamide hemifumarate (in the presence of emtricitabine): increased
